Source: article PMC3973950, “Synthesis of 5-arylidine amino-1,3,4-thiadiazol-2-[(N-substituted benzyol)]sulphonamides endowed with potent antioxidants and anticancer activity induces growth inhibition in HEK293, BT474 and NCI-H226 cells” (Medicinal Chemistry Research, 2013)

How the values were obtained:
[1] = In vitro cytotoxicity by MTT assay, HEK 293; format: cell-based, human; details: human, HEK 293 cells, read-out: % cytotoxicity (100 − % cell survival) of HEK 293 cell line
Protocol: (§1) The cancer cell line cultures of HEK 293 ([…]), BT474 (breast cancer cell line) and NCI-H226 (lung cancer) were obtained from Pasteur Institute of India, Coonoor, India, and were cultured in RPMI-1640 and 10 % heat-[…] New born calf serum with antibiotics [penicillin ([…]), streptomycin (100 μg/mL) and amphotericin B (25 μg/mL)]. The cells were maintained at 37 °C in a humidified atmosphere with 5 % CO2 and were subcultured twice a week.
(§2) The monolayer cell culture (100 μL) was trypsinized, and the cell count was adjusted to […] using medium containing 10 % new born calf serum. To each well of the 96-well microtitre plate, the diluted cell suspension (approximately 10,000 cells) (0.1 mL) was added and kept for 24 h in incubator at 37 °C in 5 % CO2 atmosphere for cell monolayer formation. After 24 h, when a partial monolayer was formed at the bottom of the well, the supernatant was flicked off, the monolayer was washed once, and different drugs, i.e. synthesized compounds (100 μL), were added to the cells in microtitre plates. The plates were then incubated at 37 °C for 3 days in 5 % CO2 atmosphere, and microscopic examination was carried out and observations recorded every 24 h. After 72 h, the sample solution in the wells was flicked off; MTT dye ([…]) was added to each well; plates were gently shaken and incubated for 4 h at 37 °C in 5 % CO2 incubator. The supernatant was removed and propanol (50 μL) was added; the plates were gently shaken to solubilize the formed formazan. The absorbance was measured using a microplate reader at a wavelength of 490 nm (Edmondson et al., [1988]; Prasad et al., [2005]; Chiruvella et al., [2008]; Chang et al., [2007]).

[2] = tested on: BT474 (breast cancer cell line); assay: In vitro cytotoxicity by MTT assay, BT474; format: cell-based; details: Homo sapiens, 72 h, read-out: % cytotoxicity (100 − % cell survival) of BT474 cell line; for cytotoxicity at 0.005 µM: BT-474, 0.005 μM; for cytotoxicity at 0.015 µM: BT-474, 0.015 μM; for cytotoxicity at 0.045 µM: BT-474, 0.045 μM; for cytotoxicity at 0.13 µM: BT-474, 0.13 μM; for cytotoxicity at 0.41 µM: BT-474, 0.41 μM; for cytotoxicity at 1.23 µM: BT-474, 1.23 μM; for cytotoxicity at 3.7 µM: BT-474, 3.7 μM; for cytotoxicity at 11.11 µM: BT-474, 11.11 μM; for cytotoxicity at 33.33 µM: BT-474, 33.33 μM; for cytotoxicity at 100 µM: BT-474, 100 μM
Protocol: as §1, §2

[3] = In vitro cytotoxicity by MTT assay, NCI-H226; format: cell-based; details: human, NCI-H226 lung cancer cells, 0.015 μM, read-out: % Cytotoxicity (100 − % cell survival) of NCI-H226 cell line
Protocol: as §1, §2

[4] = tested on: NCI-H226 (lung cancer cell line); assay: In vitro cytotoxicity by MTT assay, NCI-H226; format: cell-based; details: Homo sapiens, 72 h, read-out: % Cytotoxicity (100 − % cell survival) of NCI-H226 cell line; for cytotoxicity at 0.005 µM: NCI-H226, 0.005 μM; for cytotoxicity at 0.045 µM: NCI-H226, 0.045 μM; for cytotoxicity at 0.13 µM: NCI-H226, 0.13 μM; for cytotoxicity at 0.41 µM: NCI-H226, 0.41 μM; for cytotoxicity at 1.23 µM: NCI-H226, 1.23 μM; for cytotoxicity at 3.7 µM: NCI-H226, 3.7 μM; for cytotoxicity at 11.11 µM: NCI-H226, 11.11 μM; for cytotoxicity at 33.33 µM: NCI-H226, 33.33 μM; for cytotoxicity at 100 µM: NCI-H226, 100 μM
Protocol: as §1, §2

Structure (SMILES) | cytotoxicity at 72 h, 0.005 µM [1] | cytotoxicity at 72 h, 0.015 µM [1] | cytotoxicity at 72 h, 0.045 µM [1] | cytotoxicity at 72 h, 0.13 µM [1] | cytotoxicity at 72 h, 0.41 µM [1] | cytotoxicity at 72 h, 1.23 µM [1] | cytotoxicity at 72 h, 3.7 µM [1] | cytotoxicity at 72 h, 11.11 µM [1] | cytotoxicity at 72 h, 33.33 µM [1] | cytotoxicity at 72 h, 100 µM [1] | cytotoxicity at 0.005 µM [2] | cytotoxicity at 0.015 µM [2] | cytotoxicity at 0.045 µM [2] | cytotoxicity at 0.13 µM [2] | cytotoxicity at 0.41 µM [2] | cytotoxicity at 1.23 µM [2] | cytotoxicity at 3.7 µM [2] | cytotoxicity at 11.11 µM [2] | cytotoxicity at 33.33 µM [2] | cytotoxicity at 100 µM [2] | further results
Nc1ccc(S(=O)(=O)Nc2nnc(S(=O)(=O)NC(=O)c3ccccc3O)s2)cc1 [Compound 7d] | 18.9% | 19.9% | 20.3% | 22.2% | 24.1% | 25.3% | 26.6% | 27.2% | 29% | 29.6% | 28.5% | 29.3% | 30.6% | 31.9% | 33.1% | 34.4% | 35.7% | 36.1% | 38% | 38.9% | cytotoxicity at 72 h, 0.015 µM [3]: 34.1%; cytotoxicity at 0.005 µM [4]: 33.7%; cytotoxicity at 0.045 µM [4]: 34.6%; cytotoxicity at 0.13 µM [4]: 35.2%; cytotoxicity at 0.41 µM [4]: 35.7%; cytotoxicity at 1.23 µM [4]: 35.4%; cytotoxicity at 3.7 µM [4]: 36%; cytotoxicity at 11.11 µM [4]: 37.9%; cytotoxicity at 33.33 µM [4]: 38.5%; cytotoxicity at 100 µM [4]: 38.9%
Nc1ccc(S(=O)(=O)Nc2nnc(S(=O)(=O)NC(=O)c3ccccc3N)s2)cc1 [Compound 7b] | 37.8% | 39.2% | 40.5% | 44% | 45.3% | 46.5% | 47.8% | 48.2% | 50.7% | 51.9% | 27.4% | 28.1% | 29.5% | 30.2% | 31.4% | 32.2% | 33.3% | 34.6% | 35.5% | 36.6% | cytotoxicity at 72 h, 0.015 µM [3]: 33.6%; cytotoxicity at 0.005 µM [4]: 33.5%; cytotoxicity at 0.045 µM [4]: 35.5%; cytotoxicity at 0.13 µM [4]: 37%; cytotoxicity at 0.41 µM [4]: 37.4%; cytotoxicity at 1.23 µM [4]: 38.8%; cytotoxicity at 3.7 µM [4]: 39.1%; cytotoxicity at 11.11 µM [4]: 40.6%; cytotoxicity at 33.33 µM [4]: 41.1%; cytotoxicity at 100 µM [4]: 42.4%
Nc1ccc(C(=O)NS(=O)(=O)c2nnc(N)s2)cc1 [Compound 4c] | 36.3% | 37.9% | 38.2% | 39.1% | 39.9% | 40.7% | 42.1% | 46.5% | 47.8% | 49.1% | 30.6% | 32.1% | 34.2% | 35.5% | 36.3% | 37.6% | 38.8% | 39.4% | 40.3% | 41.4% | cytotoxicity at 72 h, 0.015 µM [3]: 38.2%; cytotoxicity at 0.005 µM [4]: 37.6%; cytotoxicity at 0.045 µM [4]: 38.9%; cytotoxicity at 0.13 µM [4]: 39.3%; cytotoxicity at 0.41 µM [4]: 42.2%; cytotoxicity at 1.23 µM [4]: 45.4%; cytotoxicity at 3.7 µM [4]: 47.2%; cytotoxicity at 11.11 µM [4]: 49.1%; cytotoxicity at 33.33 µM [4]: 51.2%; cytotoxicity at 100 µM [4]: 54.2%
Nc1ccc(S(=O)(=O)Nc2nnc(S(=O)(=O)NC(=O)c3ccccc3)s2)cc1 [Compound 7a] | 23.7% | 25.8% | 26.4% | 28.6% | 30.2% | 32.5% | 32.5% | 33.5% | 34.1% | 35.7% | 34.1% | 35% | 36.7% | 37.8% | 38.2% | 39.5% | 40.7% | 41.8% | 43.7% | 46.3% | cytotoxicity at 72 h, 0.015 µM [3]: 28.4%; cytotoxicity at 0.005 µM [4]: 27.4%; cytotoxicity at 0.045 µM [4]: 29.2%; cytotoxicity at 0.13 µM [4]: 29.4%; cytotoxicity at 0.41 µM [4]: 30.4%; cytotoxicity at 1.23 µM [4]: 32.2%; cytotoxicity at 3.7 µM [4]: 34.5%; cytotoxicity at 11.11 µM [4]: 35.1%; cytotoxicity at 33.33 µM [4]: 36.2%; cytotoxicity at 100 µM [4]: 36.9%
